This is an account of results in ChEMBL document CHEMBL3045709, “Increasing resistance against Phytophthora citrophthora in tangelo Nova fruits by modulating polymethoxyflavones levels” (J Agric Food Chem, 2002).

In test [1] the test system is Citrus. In words: Induction of resistance against Phytophthora citrophthora in Citrus (tangelo Nova) fruits assessed as increase of polymethoxyflavones levels at 20 to 250 ppm up to 160 days. The format is functional.
For test [2], the system named is Phytophthora citrophthora. Kind of test: Antifungal activity against Phytophthora citrophthora assessed as inhibition of radical growth at 0.2 to 0.6 g/L up to 200 hr. The format is functional, organism-based.
In test [3] the test system is Citrus. Kind of test: Induction of resistance against Phytophthora citrophthora in Citrus (tangelo Nova) fruits assessed as increase of polymethoxyflavones levels at 20 to 250 ppm after 7 days. It counts as functional.
Test [4] concerns Phytophthora citrophthora. In words: Antifungal activity against Phytophthora citrophthora after 100 hr. The format is functional, organism-based.
Test [5] has as its system Phytophthora citrophthora. Kind of test: Antifungal activity against Phytophthora citrophthora in tangelo Nova fruits assessed as inhibition of fungal growth at 100 ppm after 3 to 5 days. It counts as functional. To be noted: read-out: GI.
The subject of a further test is Penicillium digitatum. In words: Antifungal activity against Penicillium digitatum. The format is functional, organism-based.
The test system of test [6] is Phytophthora citrophthora. In words: Antifungal activity against Phytophthora citrophthora assessed as inhibition of radical growth at 0.1 to 1 g/L up to 200 hr. The format is functional, organism-based.
Test [7] has as its system Phytophthora citrophthora. Kind of test: Antifungal activity against Phytophthora citrophthora assessed as inhibition of radical growth at 0.05 to 0.4 g/L up to 200 hr. It counts as functional, organism-based.

SMILES strings stand for the structures. Calls of active or inactive are those of the source. The rule behind the calls is not given here.

Take `COc1ccc(-c2cc(=O)c3c(OC)c(OC)c(OC)cc3o2)cc1OC` [SINENSETIN]: the outcome with Citrus [1] was Active. Also, the “growth inhibition (GI)” value in test [2] is “Active”. The Activity in the test with Citrus [3] is on record as 20%. Moreover, in test [4], half-maximal inhibition (IC50) was put at 910 µM.
Take `c1ccc(CNc2ncnc3[nH]cnc23)cc1` [6-BENZYLAMINOPURINE]: the inhibition of growth at 100 ppm in test [5] is 60%.
Take `COc1ccc(-c2cc(=O)c3c(OC)c(OC)c(OC)c(OC)c3o2)cc1` [TANGERETIN]: the half-maximal inhibitory concentration (IC50) (as a rule, the concentration at which inhibition is half-maximal) in the test with Penicillium digitatum was 6450 µM; in test [4], 1720 µM. Moreover, the outcome in the test with Citrus [1] was Active. Moreover, the Activity with Citrus [3] is listed as 12%. The “growth inhibition (GI)” value in test [6] was “Active”.
Regarding `COc1ccc(-c2cc(=O)c3c(OC)c(OC)c(OC)c(OC)c3o2)cc1OC` [NOBILETIN], the outcome in the test on Citrus [1] was Active. Also, in the test with Citrus [3], the Activity is listed as 20%. The “growth inhibition (GI)” value in test [7] was “Active”. Further, the IC50 in test [4] was 590 µM.
Take `COc1ccc(-c2oc3c(OC)c(OC)c(OC)c(OC)c3c(=O)c2OC)cc1OC` [3,5,6,7,8,3',4'-HEPTAMETHOXYFLAVONE]: the Activity in the test on Citrus [1] worked out at 43%; in the test with Citrus [3], 29%. For the same compound, the “growth inhibition (GI)” value in test [6] was “Active”. Besides, it took 1040 µM to reach half-maximal inhibition in test [4] (IC50).
